The record followed here is paper PMC8198214, “Synthesis and Biological Evaluation of Spirocyclic Chromane Derivatives as a Potential Treatment of Prostate Cancer” (Molecules, 2021).

The test system of this test is 22Rv1 cells. Briefly: 22Rv1 cell viability (CCK-8) antiproliferation assay. As to conditions: for IC50: 22Rv1 cells, means of two independent experiments (n = 2). Type of test: cell-based, human. As to the method:
The 22Rv1 prostate cancer cell line in this study was purchased from KeyGEN Biotech Co. Ltd. (Nanjing, Jiangsu, China ). The cells were cultured in RPMI 1640 medium and maintained at 37 °C in a 5% CO2 incubator. For the cell viability assay, the cell slurry was diluted to required volume at a density of 80,000 cells/mL. Then, 100 μL the cell slurry was seeded in each well of the 96-well plate. The cells were incubated for 72 h at 37 °C, 5% CO2 under humidified condition. The reference and test compounds solution (200×) were prepared with DMSO and were diluted from 200× to 1× with culture medium (RPMI 1640 medium without phenol red and containing 10% fetal calf serum, penicillin (100U/mL), streptomycin (100 μg/mL) and 0.1 nM DHT). The previous culture medium was removed and 200 μL/well of the compound solution (1×) was added to assay plate (final conc: 1×). Then the cells were incubated at 37 °C, 5% CO2 under humidified conditions. 5 Days later, the CCK-8 assay reagent was equilibrated at room temperature for 30 min prior to use. CCK-8 was mixed with fresh medium at a ratio of 1:10 and 100 μL of the diluted CCK8 reagent was added to each well and the plates were incubated for 4.5 h at 37 °C. Finally, absorbance value (OD value) was read on plate reader. GraphPad Prism v5.0 software was used to process data for IC50.

Take “2-(5′-(3-Cyclopropylureido)-2′′,4′′-dioxo-2′H-dispiro[cyclopropane-1,3′-indene-1′,5′′-oxazolidin]-3′′-yl)-N-(4-fluorobenzyl)-N-((S)-1,1,1-trifluoropropan-2-yl)acetamide [A3]”: it took 798 nM to reach half-maximal inhibition (Table 1) (IC50).
In the case of `C[C@H](N(Cc1ccc2c(c1)OC(F)(F)O2)C(=O)CN1C(=O)O[C@@]2(CCc3cc(-c4cnn(C)c4)ccc32)C1=O)C(F)(F)F` [B1, N-((2,2-Difluorobenzo[d][1,3]dioxol-5-yl)methyl)-2-((R)-5-(1-methyl-1H-pyrazol-4-yl)-2′,4′-dioxo-2,3-dihydrospiro[indene-1,5′-oxazolidin]-3′-yl)-N-((S)-1,1,1-trifluoropropan-2-yl)acetamide], the “fold less potency than A-485” value (22Rv1 cell antiproliferation) was found to be 10 fold. Further, the IC50 (Homo sapiens, Table 2) amounted to 1370 nM.
Under “Homo sapiens, Table 2”, `CN1C2CCC1CC(N(Cc1ccc(F)cc1)C(=O)CN1C(=O)O[C@@]3(CCc4cc(-c5cnn(C)c5)ccc43)C1=O)C2` (stereo partly drawn) [B2, N-(4-Fluorobenzyl)-2-((R)-5-(1-methyl-1H-pyrazol-4-yl)-2′,4′-dioxo-2,3-dihydrospiro[indene-1,5′-oxazolidin]-3′-yl)-N-(8-methyl-8-azabicyclo[3.2.1]octan-3-yl)acetamide] registered an IC50 of 37600 nM.
The same measure, in the same setting: for `Cn1cc(-c2ccc3c(c2)CCC32OC(=O)N(CC(=O)N(Cc3ccc(F)cc3)[C@@H]3CN4CCC3CC4)C2=O)cn1` (stereo partly drawn) [B3, N-(4-Fluorobenzyl)-2-(5-(1-methyl-1H-pyrazol-4-yl)-2′,4′-dioxo-2,3-dihydrospiro [indene-1,5′-oxazolidin]-3′-yl)-N-((S)-quinuclidin-3-yl)acetamide] the value was above 25000 nM.
Consider `Cn1cc(-c2ccc3c(c2)CCC32OC(=O)N(CC(=O)N(Cc3ccc(F)cc3)[C@H]3CCc4ccccc43)C2=O)cn1` (stereo partly drawn) [B4, N-((S)-2,3-Dihydro-1H-inden-1-yl)-N-(4-fluorobenzyl)-2-(5-(1-methyl-1H-pyrazol-4-yl)-2′,4′-dioxo-2,3-dihydrospiro[indene-1,5′-oxazolidin]-3′-yl)acetamide], for which the IC50 (Homo sapiens, Table 2) worked out at 252 nM.
Under “Homo sapiens, Table 2”, `CNC(=O)Nc1ccc2c(c1)CCC21OC(=O)N(CC(=O)N(Cc2ccc(F)cc2)[C@H]2CCc3ccccc32)C1=O` (stereo partly drawn) [B5, N-((S)-2,3-Dihydro-1H-inden-1-yl)-N-(4-fluorobenzyl)-2-(5-(3-methylureido)-2′,4′-dioxo-2,3-dihydrospiro[indene-1,5′-oxazolidin]-3′-yl)acetamide] registered an IC50 of 406 nM.
The same measure, in the same setting: the figure for `CC(C)(O)Cn1cc(-c2ccc3c(c2)CCC32OC(=O)N(CC(=O)N(Cc3ccc(F)cc3)[C@H]3CCc4ccccc43)C2=O)cn1` (stereo partly drawn) [B6, N-((S)-2,3-Dihydro-1H-inden-1-yl)-N-(4-fluorobenzyl)-2-(5-(1-(2-hydroxy-2-methylpropyl)-1H-pyrazol-4-yl)-2′,4′-dioxo-2,3-dihydrospiro[indene-1,5′-oxazolidin]-3′-yl)acetamide] is 431 nM; for `CNC(=O)Cn1cc(-c2ccc3c(c2)CCC32OC(=O)N(CC(=O)N(Cc3ccc(F)cc3)[C@H]3CCc4ccccc43)C2=O)cn1` (stereo partly drawn) [B7, N-((S)-2,3-Dihydro-1H-inden-1-yl)-N-(4-fluorobenzyl)-2-(5-(1-(2-(methylamino)-2-oxoethyl)-1H-pyrazol-4-yl)-2′,4′-dioxo-2,3-dihydrospiro[indene-1,5′-oxazolidin]-3′-yl)acetamide] it is 270 nM; for `CNC(=O)Cn1cc(-c2ccc3c(c2)CCC32OC(=O)N(CC(=O)N(Cc3ccc(F)cc3)[C@H]3CCc4cc(F)ccc43)C2=O)cn1` (stereo partly drawn) [B9, N-((S)-5-Fluoro-2,3-dihydro-1H-inden-1-yl)-N-(4-fluorobenzyl)-2-(5-(1-(2-(methylamino)-2-oxoethyl)-1H-pyrazol-4-yl)-2′,4′-dioxo-2,3-dihydrospiro[indene-1,5′-oxazolidin]-3′-yl)acetamide] it is 334 nM.
On the same count and under the same terms, for `CNC(=O)Cn1cc(-c2ccc3c(c2)CCC32OC(=O)N(CC(=O)N(Cc3ccc(F)cc3)[C@@H]3CCc4ccccc43)C2=O)cn1` (stereo partly drawn) [B10, N-((R)-2,3-Dihydro-1H-inden-1-yl)-N-(4-fluorobenzyl)-2-(5-(1-(2-(methylamino)-2-oxoethyl)-1H-pyrazol-4-yl)-2′,4′-dioxo-2,3-dihydrospiro[indene-1,5′-oxazolidin]-3′-yl)acetamide] the value was 1660 nM.
In the case of `CNC(=O)Cn1cc(-c2ccc3c(c2)CCC32OC(=O)N(CC(=O)N(Cc3ccc(F)cc3)[C@@H]3CCc4ncccc43)C2=O)cn1` (stereo partly drawn) [B11, N-((R)-6,7-Dihydro-5H-cyclopenta[b]pyridin-5-yl)-N-(4-fluorobenzyl)-2-(5-(1-(2-(methylamino)-2-oxoethyl)-1H-pyrazol-4-yl)-2′,4′-dioxo-2,3-dihydrospiro[indene-1,5′-oxazolidin]-3′-yl)acetamide], for the setting “22Rv1 cell antiproliferation”, the “fold increased potency versus B10” value is given as 5 fold. The compound further displayed an IC50 (Homo sapiens, Table 2) of 340 nM.
As for `CNC(=O)Cn1cc(-c2ccc3c(c2)CCC32OC(=O)N(CC(=O)N(Cc3ccc(F)cn3)[C@@H]3CCc4ccccc43)C2=O)cn1` (stereo partly drawn) [B12, N-((R)-2,3-Dihydro-1H-inden-1-yl)-N-((5-fluoropyridin-2-yl)methyl)-2-(5-(1-(2-(methylamino)-2-oxoethyl)-1H-pyrazol-4-yl)-2′,4′-dioxo-2,3-dihydrospiro[indene-1,5′-oxazolidin]-3′-yl)acetamide], under “22Rv1 cell antiproliferation”, the “fold increased potency versus B10” value worked out at 5 fold. The IC50 (Homo sapiens, Table 2) amounted to 265 nM.
In the case of `CNC(=O)Cn1cc(-c2ccc3c(c2)CCC32OC(=O)N(CC(=O)N(Cc3ccc(F)cn3)[C@@H]3CCc4cccnc43)C2=O)cn1` (stereo partly drawn) [B13, N-((R)-6,7-Dihydro-5H-cyclopenta[b]pyridin-7-yl)-N-((5-fluoropyridin-2-yl)methyl)-2-(5-(1-(2-(methylamino)-2-oxoethyl)-1H-pyrazol-4-yl)-2′,4′-dioxo-2,3-dihydrospiro[indene-1,5′-oxazolidin]-3′-yl)acetamide], for the setting “Homo sapiens, Table 2”, it took 3470 nM to reach half-maximal inhibition (IC50).
On the same count and under the same terms, the figure for `CNC(=O)Cn1cc(-c2ccc3c(c2)CCC32OC(=O)N(CC(=O)N(Cc3ccc(F)cc3)[C@H]3CCCc4ccccc43)C2=O)cn1` (stereo partly drawn) [B15, N-(4-fluorobenzyl)-2-(5-(1-(2-(methylamino)-2-oxoethyl)-1H-pyrazol-4-yl)-2′,4′-dioxo-2,3-dihydrospiro[indene-1,5′-oxazolidin]-3′-yl)-N-((S)-1,2,3,4-tetrahydronaphthalen-1-yl)acetamide] is 450 nM; for `CNC(=O)Nc1ccc2c(c1)CCC21OC(=O)N(CC(=O)N2CCCc3ccc(C(F)F)cc32)C1=O` (centres unmarked) [B17, 1-(3′-(2-(7-(Difluoromethyl)-3,4-dihydroquinolin-1(2H)-yl)-2-oxoethyl)-2′,4′-dioxo-2,3-dihydrospiro[indene-1,5′-oxazolidin]-5-yl)-3-methylurea] it is 8700 nM; for `Cn1cc(-c2ccc3c(c2)CCC32OC(=O)N(CC(=O)N3CCn4c(nnc4C(F)(F)F)C3)C2=O)cn1` (centres unmarked) [B18, 5-(1-Methyl-1H-pyrazol-4-yl)-3′-(2-oxo-2-(3-(trifluoromethyl)-5,6-dihydro-[1,2,4]triazolo[4,3-a]pyrazin-7(8H)-yl)ethyl)-2,3-dihydrospiro[indene-1,5′-oxazolidine]-2′,4′-dione] it is above 25000 nM.
“N-(4-Fluorobenzyl)-2-(2-methyl-2′,4′-dioxo-2,4,8,9-tetrahydrospiro[cyclopenta [6,7]chromeno [3,4-c]pyrazole-7,5′-oxazolidin]-3′-yl)-N-((S)-1,1,1-trifluoropropan-2-yl)acetamide [A4]” returned a 50% inhibitory concentration (IC50) (Table 1) above 100000 nM.
Regarding “N-(4-Fluorobenzyl)-2-(3-(1-(2-(methylamino)-2-oxoethyl)-1H-pyrazol-4-yl)-2′,4′-dioxo-5,6-dihydrospiro[cyclopenta[b]pyridine-7,5′-oxazolidin]-3′-yl)-N-((S)-1,1,1-trifluoropropan-2-yl)acetamide [A5]”, the IC50 (Table 1) came out at 16100 nM.
The same measure, in the same setting: the figure for “N-(4-Fluorobenzyl)-2-(3-(1-(2-(methylamino)-2-oxoethyl)-1H-pyrazol-4-yl)-2′,4′-dioxospiro[fluorene-9,5′-oxazolidin]-3′-yl)-N-((S)-1,1,1-trifluoropropan-2-yl)acetamide [A1]” is above 100000 nM; for “N-(4-Fluorobenzyl)-2-(3-(1-methyl-1H-pyrazol-4-yl)-2′,4′-dioxo-5,6-dihydrospiro [cyclopenta[c]pyridine-7,5′-oxazolidin]-3′-yl)-N-((S)-1,1,1-trifluoropropan-2-yl)acetamide [A6]” it is 27000 nM; for “N-(4-Fluorobenzyl)-2-(5-(1-(2-(methylamino)-2-oxoethyl)-1H-pyrazol-4-yl)-2′,5′-dioxo-2,3-dihydrospiro[indene-1,3′-pyrrolidin]-1′-yl)-N-((S)-1,1,1-trifluoropropan-2-yl)acetamide [A7]” it is 1800 nM.
Compound “N-(4-Fluorobenzyl)-2-(5-(3-methylureido)-2′,5′-dioxo-2,3-dihydrospiro[indene-1,3′-pyrrolidin]-1′-yl)-N-((S)-1,1,1-trifluoropropan-2-yl)acetamide [A8]” registered an IC50 (Table 1) of 6410 nM. This IC50 lies about 3.6-fold higher than the previous one.
On the same count and under the same terms, the figure for “N-(4-Fluorobenzyl)-2-(5′-(3-methylureido)-2′′,4′′-dioxo-2′H-dispiro[cyclopropane-1,3′-indene-1′,5′′-oxazolidin]-3′′-yl)-N-((S)-1,1,1-trifluoropropan-2-yl)acetamide [A2]” is 351 nM.
